Peptide text beside a SMILES is read from it.
Key:
[1] = system: leukocytic pyrogen-induced fever; assay: in vivo rabbit pyresis assay (leukocytic pyrogen-induced fever); parameters: species or system New Zealand white rabbits; details: for decrease in fever, percent reduction of the area under the control fever curve: intraventricular (central), 30 min after pyrogen, over 1.5 hours; for fever reduction: 1.5 hour period after injection of leukocytic pyrogen
Protocol: Leukocytic pyrogen is a molecule capable of producing transient fever in mammals which is produced by incubating rabbit leukocytes with Salmonella typhosa endotoxin. More specifically, to produce leukocytic pyrogen, donor rabbits were first sacrificed by decapitation. Blood was collected in a heparinized pryrogen-free beaker. Heparinized 50-ml glass centrifuge tubes were filled 3/4 full with whole blood, saline was added to fill each tube, and the solution was gently mixed. The tubes were then centrifuged at low speed for 20 min. The buffy coat was drawn off and placed in pyrogen-free flasks. Lactate Ringer's solution equal in volume to one-half that of the red cell layer, was added along with Salmonella typhosa endotoxin (Difco, No. 0901) also in Ringer's solution (1 ug/ml), to the buffy coat. The mixture was incubated at 38~C in a shaking water bath for 4 hours. The solution was centrifuged, filtered (Nalgene, 0.20 microns), and the leukocytic pyrogen-containing filtrate was stored at 4~C. Samples of leukocytic pyrogen were heated to 70~C for 2 hours and injected intravenously to test for endotoxin contamination.
Injections were 50 ul in volume and were followed by a 20 ul saline flush. Intravenous injections were made via the marginal ear vein. Intravenous leukocytic pyrogen injections were 0.07 ml of a stock solution made up of a mixture of leukocytic pyrogen derived from 4 donors. When injected, leukocytic pyrogen stock solution was diluted with nonpyrgenic isotonic saline. Injections were made with commercial nonpyrogenic syringes. Glassware was washed with chromic acid, rinsed with deionized water and heated to 200~C for a minimum of 2 hours to insure that it was pyrogen free.
Adult New Zealand white rabbits were used for the development of an antipyretic assay. The rabbits were housed individually in a 21-23~Cenvironment with a 12 hour light/dark cycle; food and water were available ad libitum. […]. Rabbits were placed in a Kopf rabbit stereotaxic instrument and a stainless steel cannula (No. 201, David Kopf Instruments)was inserted into a lateral ventricle at a point 1.0 mm anterior to the bregma and 2.7 mm lateral to the midline. The cannula was lowered until cerebrospinal fluid appeared inside the well of the cannula. Stainless steel screws and dental acrylic were used to anchor the cannula to the caluarium. Benzathine penicillin G (Bicillin, Wyeth Laboratories) was given post-operatively (150,000 units intramuscularly).
(§1) Experimental rabbits that were to be used in the antipyresis study were restrained in conventional holders and a thermistor probe (Yellow Springs International, No. 701) was inserted about 100 mm into the rectum and taped to the tail. In certain experiments, another thermistor probe (Yellow Springs International, No. 709) was attached to the dorsal surface of the ear. Temperature recordings were made every 10 minutes via a MINC 11 online computer connected to a digital temperature recorder (Datalogger, United Systems Corp.) At least 1 hour was allowed after the probes were inserted before injections were made, and all experiments were separated by at least 48 hours. Experiments were run in an environmental chamber at 23~C.
The average thermal response, the mean change in temperature (~C) over the duration of the response measured in hours, was calculated for each response and the paired t-test was used for statistical analysis of the data. The time period over which the experimental anti-pyretic temperature response was determined was generally set by the duration of the control response for the individual animal. The control response begins with the first deviation from baseline temperature and continues until the temperature returns to baseline or to the point nearest the baseline within 5 hours. The mean change in temperature for each 10 minute intervals during this time period are summed and divided by the total number of 10 minute periods. […]

[2] = system: normal body temperature; assay: body temperature of afebrile rabbits; type: in vivo
Protocol: as §1
Injections of the tripeptide were given 30 minutes after the pyrogen, into the intraventricular cannula. […] Decreases in fever, calculated as percent reduction of the area under the control fever curve over the apparent duration of action of the peptide (1.5 hours), were 24%, 31%, and 48% for the 0.5, 1.0, and 2.0 milligram doses, respectively. Similarly, intravenous administration of 2, 20 and 200 milligrams of the tripeptide reduced fever 34, 27 and 67% , respectively, during the 1.5 hour period after injection of the leukocytic pyrogen. Control saline injections, centrally administered, caused no significant reduction in body temperature.

[3] = system: carrageenan-induced swelling of rat paws; assay: carrageenan/rat paw edema assay; type: in vivo, male Sprague-Dawley rats; details: for overall reduction of carrageenan-induced swelling relative to hydrocortisone: approximately equal weights, intraperitoneal
Protocol: A second in vivo bioassay for anti-inflammatory activity was conducted in which the action of the tripeptide was compared to that of hydrocortisone. In this assay, the two agents were given at similar doses and tested for their independent ability to inhibit carrageenan-induced swelling of rats paws. This assay, the rat paw edema test, was conducted generally as it is typically performed in the art, for example, as described by Winter et al. (1962), Proc. Soc. Exp. Biol. Med., 111:544 or in U.S. Pat. No. 4,150,137.
Briefly, the assay was performed as follows. Each of twenty-four male Sprague-Dawley rats was assigned to one of four groups: tripeptide treatment and controls (matched according to body weight and initial paw volume), hydrocortisone treatment and matched controls. The volume of the right rear paw of the test and control animals was determined using standard procedures and a mercury displacement volumetric technique. An intraperitoneal injection of the tripeptide (Ac-Lys-Pro-Val-NH2, 100 mg/kg, N=6), of hydrocortisone (100 mg/kg, N=6), or saline (matched volume, N=12) was given to each rat. One hour later 0.5 ml of 1% lambda carrageenan in saline solution was injected into the right rear paw of the animals and the paw volume was again recorder (baseline measure). […] Thereafter paw volume was measured each hour for out hours. For comparison of the effects of the two treatments, paw volume of experimental animals measured at hourly intervals was expressed as a percentage of the volume change of their respective matched controls.

[4] = system: histamine-mediated increase in capillary permeability; assay: skin-blueing test (Sparrow/Wilhelm assay), histamine-induced blue weals; type: in vivo, New Zealand white rabbits; details: for relative intensity of histamine-induced blue weals, experimental (E) vs control (C): scored 30 minutes after histamine
Description: This model relies on the principal that localized, subcutaneous injections of histamine will result in a localized increase in capillary permeability. When the test animal has been pretreated with blue dye intravenously, the localized histamine injections will elicit blue-colored "weals" around the injection site. Thus, by preadministration of an effective anti-inflammatory agent, the blue color of the histamine-induced weals will be much less pronounced, with the amount of color reduction being dependent on the relative amount and/or potency of the anti-inflammatory agent used.
Non-moulting New Zealand white rabbits were used for the sparrow/Wilhelm assay. The skin of the rabbits back was closely clipped 1-2 days previous to the experiment, but not dipilated, and the rabbits were kept warm until tested. Various amounts of the protected tripeptide (diacetyl-L-lys-l-Pro-L-Val-NH2) were injected intravenously into an ear vein approximately 15 minutes prior to intravenous injection of blue dye. Control rabbits received sham injections. Fifteen minutes following injection of the agent or sham, the rabbits received approximately 30 mg/kg of Pontamine blue dye as a 2.5% solution in 0.45% saline, into an exposed vein.
Immediately following dye injections, histamine was injected intradermally in a 0.10 ml volume (1.25 mg histamine 0.1 ml volume) at several sites on each side of the spine. In all, one vertical row of six injections were made on each side of the spine. The relative intensity of the resultant blue weals were scored by an independent observer 30 minutes after histamine injection.

## CC(C)[C@H](NC(=O)[C@@H]1CCCN1C(=O)[C@@H](N)CCCCN)C(=O)O [L-Lys-L-Pro-L-val] (H-Lys-Pro-Val-OH)
[1]; 0.5 milligram dose
  decrease in fever, percent reduction of the area under the control fever curve: 24%
[1]; 1.0 milligram dose
  decrease in fever, percent reduction of the area under the control fever curve: 31%
[1]; 2.0 milligram dose
  decrease in fever, percent reduction of the area under the control fever curve: 48%
[1]; central administration
  duration of (antipyretic) action: 1.5 h
[1]; intravenous 2 milligrams
  fever reduction: 34%
[1]; intravenous 20 milligrams
  fever reduction: 27%
[1]; intravenous 200 milligrams
  fever reduction: 67%
[2]; injections of 200 milligrams
  reduction in body temperature of afebrile rabbits: no reduction in body temperature

## [Cl][Cu][Cl] [copper ions, cupric chloride]
[2]; doses used to enhance the protected peptide
  effect of copper ions alone on normal temperature: no effect on normal temperature

## C[C@]12CCC(=O)C=C1CC[C@@H]1[C@@H]2[C@@H](O)C[C@@]2(C)[C@H]1CC[C@]2(O)C(=O)CO [hydrocortisone, reference compound]
[3]; 100 mg/kg intraperitoneal, first hour after carrageenan, p<0.05 Mann-Whitney vs tripeptide
  inhibition of paw swelling in the first hour: markedly inhibited swelling

## diacetyl-L-Lysyl-L-Prolyl-L-Valyl-NH2 [protected tripeptide]
[1]; 0.5 mg, central administration
  reduction of fever induced by intravenous leukocytic pyrogen: more than 50%
[1]; central administration
  antipyretic potency relative to the unprotected tripeptide: at least four
  duration of (antipyretic) action: at least four
[1]; rabbit pyresis assay, summary statement
  activity relative to the unprotected species on a weight basis: approximately twice
[4]; 0.625 ug/kg body weight intravenously
  relative intensity of histamine-induced blue weals, experimental (E) vs control (C): No difference
[4]; 1.25 ug/kg body weight intravenously
  relative intensity of histamine-induced blue weals, experimental (E) vs control (C): E lighter than C
[4]; 5 ug/kg body weight intravenously
  relative intensity of histamine-induced blue weals, experimental (E) vs control (C): E lighter than C
[4]; 10 ug/kg body weight intravenously
  relative intensity of histamine-induced blue weals, experimental (E) vs control (C): E lighter than C
[4]; intravenous
  lowest intravenous dosage reducing histamine-mediated increase in capillary permeability: 1.25 ug/kg body weight
[4]; rabbit, in vivo
  lowest dosage eliciting a demonstrable reduction in histamine-mediated vascular permeability to vital dyes: about 1 microgram/kilogram
[3]; 100 mg/kg intraperitoneal each, 1 h before carrageenan, hours after the first hour, p>0.20
  inhibition of paw edema compared with hydrocortisone: no significant difference
[3]; listed as diacetyl-Lys-Pro-Val-NH2
  overall reduction of carrageenan-induced swelling relative to hydrocortisone: roughly equivalent
[3]; listed as protected Lys-Pro-Val tripeptide
  overall reduction of carrageenan-induced swelling relative to hydrocortisone: commensurate with hydrocortisone
